Reference: patent US20250179103A1, “6-OXODECAHYDROPYRROLO[1,2-A][1,5]DIAZOCINE AND 6-OXODECAHYDRO-4H-PYRROLO[2,1-D][1,5]THIAZOCINE DERIVATIVES AS STAT3 AND STAT6 MODULATORS FOR THE TREATMENT OF CANCER AND INFLAMMATORY CONDITIONS” (Recludix Pharma, Inc., priority 2022, published 2025)

Experiments:
[1] = target: T1, Recombinant STAT6 protein (STAT6(W123-T658)) (Homo sapiens, UniProt P42226); test: STAT6 Fluorescence Polarization (FP) Assay; assay type: binding; settings: STAT6(W123-T658) 250 nM, probe 5-FAM-ApYKPFQDLI-NH2 2 nM, 45-minute incubation
T1 construct: Recombinant STAT6 protein (STAT6(W123-T658))
T1 sequence (P42226 123-658): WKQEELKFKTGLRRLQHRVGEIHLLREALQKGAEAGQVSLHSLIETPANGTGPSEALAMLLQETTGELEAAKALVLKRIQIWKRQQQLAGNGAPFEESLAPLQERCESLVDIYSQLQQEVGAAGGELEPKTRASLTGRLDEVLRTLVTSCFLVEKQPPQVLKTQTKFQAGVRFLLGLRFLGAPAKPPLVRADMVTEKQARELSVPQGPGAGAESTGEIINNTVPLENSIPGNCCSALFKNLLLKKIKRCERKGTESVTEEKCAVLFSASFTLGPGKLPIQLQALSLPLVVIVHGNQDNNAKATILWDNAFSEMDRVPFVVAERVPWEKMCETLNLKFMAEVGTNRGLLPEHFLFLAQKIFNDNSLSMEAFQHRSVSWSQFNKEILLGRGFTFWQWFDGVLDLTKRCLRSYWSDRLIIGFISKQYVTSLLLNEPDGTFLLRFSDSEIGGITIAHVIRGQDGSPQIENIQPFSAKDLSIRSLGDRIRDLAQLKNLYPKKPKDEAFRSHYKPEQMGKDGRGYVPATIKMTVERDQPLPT
How it was run: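 Displacement of a fluorescent phosphotyrosine peptide (5-FAM-ApYKPFQDLI-NH2, 2 nM) from STAT6(W123-T658) (250 nM), 1% DMSO, pH 7.4 HEPES buffer. After 45 min at room temperature, polarization (mP) was plotted versus log compound concentration and fitted by nonlinear regression to give IC50.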

[2] = target: T2, Recombinant STAT3 protein (STAT3(G127-I722)) (Homo sapiens, UniProt P40763); test: STAT3 Fluorescence Polarization (FP) Assay; assay type: binding; settings: STAT3(G127-I722) 25 nM, probe 5-FAM-GpYLPQTV-NH2 2 nM, 45-minute incubation
T2 construct: Recombinant STAT3 protein (STAT3(G127-I722))
How it was run: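 Fluorescence polarization after a 45-min room-temperature incubation measured compound displacement of a 2 nM fluorescein-labelled phosphotyrosine peptide (5-FAM-GpYLPQTV-NH2) from 25 nM recombinant STAT3(G127-I722). Buffer was 10 mM HEPES pH 7.4 with 1% DMSO final. IC50s were fitted by nonlinear regression of mP against log concentration.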

T2 sequence (P40763 127-722): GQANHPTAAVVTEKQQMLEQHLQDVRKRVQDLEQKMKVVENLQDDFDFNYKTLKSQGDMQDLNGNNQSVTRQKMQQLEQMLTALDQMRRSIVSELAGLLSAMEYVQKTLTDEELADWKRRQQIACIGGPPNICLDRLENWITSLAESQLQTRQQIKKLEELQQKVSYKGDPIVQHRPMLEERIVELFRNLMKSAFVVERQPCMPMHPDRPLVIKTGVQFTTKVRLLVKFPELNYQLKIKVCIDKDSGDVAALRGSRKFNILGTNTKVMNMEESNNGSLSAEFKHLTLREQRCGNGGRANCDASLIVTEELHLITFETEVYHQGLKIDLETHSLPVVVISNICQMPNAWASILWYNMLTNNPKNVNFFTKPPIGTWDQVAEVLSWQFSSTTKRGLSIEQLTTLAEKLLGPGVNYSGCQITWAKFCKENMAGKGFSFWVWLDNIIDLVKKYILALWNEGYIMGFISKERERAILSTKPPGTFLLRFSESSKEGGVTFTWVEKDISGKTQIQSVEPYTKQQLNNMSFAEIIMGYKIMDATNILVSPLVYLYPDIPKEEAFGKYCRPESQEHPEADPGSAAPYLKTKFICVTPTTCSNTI

Compound | IC50 [1] | IC50 [2]
C[C@H](Cc1ccccc1)C(=O)N1CC[C@H]2CC[C@@H](C(=O)N3CCCC3)N2C(=O)[C@@H](NC(=O)c2cc3cc(C(F)(F)P(=O)(O)O)ccc3s2)C1 [Compound 259, (difluoro(2-(((5S,8S,10aR)-3-((R)-2-methyl-3-phenylpropanoyl)-6-oxo-8-(pyrrolidine-1-carbonyl)decahydropyrrolo[1,2-a][1,5]diazocin-5-yl)carbamoyl)benzo[b]thiophen-5-yl)methyl)phosphonic acid] | 300 to 3000 nM | 100 to 1000 nM
C[C@H](CC(=O)N1CC[C@H]2CC[C@@H](C(=O)N3CCCC3)N2C(=O)[C@@H](NC(=O)c2cc3cc(C(F)(F)P(=O)(O)O)ccc3s2)C1)c1ccccc1 [Compound 260, (difluoro(2-(((5S,8S,10aR)-6-oxo-3-((R)-3-phenylbutanoyl)-8-(pyrrolidine-1-carbonyl)decahydropyrrolo[1,2-a][1,5]diazocin-5-yl)carbamoyl)benzo[b]thiophen-5-yl)methyl)phosphonic acid] | 300 to 3000 nM | 100 to 1000 nM
C[C@@H](CC(=O)N1CC[C@H]2CC[C@@H](C(=O)N3CCCC3)N2C(=O)[C@@H](NC(=O)c2cc3cc(C(F)(F)P(=O)(O)O)ccc3s2)C1)c1ccccc1 [Compound 261, (difluoro(2-(((5S,8S,10aR)-6-oxo-3-((S)-3-phenylbutanoyl)-8-(pyrrolidine-1-carbonyl)decahydropyrrolo[1,2-a][1,5]diazocin-5-yl)carbamoyl)benzo[b]thiophen-5-yl)methyl)phosphonic acid] | 300 to 3000 nM | 100 to 1000 nM
COC(=O)N1CC[C@H]2CC[C@@H](C(=O)N3CCCC3)N2C(=O)[C@@H](NC(=O)c2cc3cc(C(F)(F)P(=O)(O)O)ccc3s2)C1 [Compound 262, (difluoro(2-(((5S,8S,10aR)-3-(methoxycarbonyl)-6-oxo-8-(pyrrolidine-1-carbonyl)decahydropyrrolo[1,2-a][1,5]diazocin-5-yl)carbamoyl)benzo[b]thiophen-5-yl)methyl)phosphonic acid] | 300 to 3000 nM | 1000 to 10000 nM
O=C(N[C@H]1CN(CC(F)F)CC[C@H]2CC[C@@H](C(=O)N3CC(C(=O)N4CCOCC4)C3)N2C1=O)c1cc2cc(C(F)(F)P(=O)(O)O)ccc2s1 [Compound 263, ((2-(((5S,8S,10aR)-3-(2,2-difluoroethyl)-8-(3-(morpholine-4-carbonyl)azetidine-1-carbonyl)-6-oxodecahydropyrrolo[1,2-a][1,5]diazocin-5-yl)carbamoyl)benzo[b]thiophen-5-yl)difluoromethyl)phosphonic acid] | 3000 to 30000 nM | ≤ 100 nM
CN(CC(C)(C)C#N)C(=O)[C@@H]1CC[C@@H]2CCN(CC(F)F)C[C@H](NC(=O)c3cc4cc(C(F)(F)P(=O)(O)O)ccc4s3)C(=O)N21 [Compound 264, ((2-(((5S,8S,10aR)-8-((2-cyano-2-methylpropyl)(methyl)carbamoyl)-3-(2,2-difluoroethyl)-6-oxodecahydropyrrolo[1,2-a][1,5]diazocin-5-yl)carbamoyl)benzo[b]thiophen-5-yl)difluoromethyl)phosphonic acid] | 300 to 3000 nM | 1000 to 10000 nM
O=C(N[C@H]1CN(C(=O)Cc2ccccc2)CC[C@H]2CC[C@@H](C(=O)Nc3ccccc3-c3ccccc3)N2C1=O)c1cc2cc(C(F)(F)P(=O)(O)O)ccc2[nH]1 [Compound 265, ((2-(((5S,8S,10aR)-8-([1,1′-biphenyl]-2-ylcarbamoyl)-6-oxo-3-(2-phenylacetyl)decahydropyrrolo[1,2-a][1,5]diazocin-5-yl)carbamoyl)-1H-indol-5-yl)difluoromethyl)phosphonic acid] | 300 to 3000 nM | 1000 to 10000 nM
N#Cc1ccccc1-c1ccc(NC(=O)[C@@H]2CC[C@@H]3CCN(C(=O)Cc4ccccc4)C[C@H](NC(=O)c4cc5cc(C(F)(F)P(=O)(O)O)ccc5[nH]4)C(=O)N32)cc1 [Compound 266, ((2-(((5S,8S,10aR)-8-((2′-cyano-[1,1′-biphenyl]-4-yl)carbamoyl)-6-oxo-3-(2-phenylacetyl)decahydropyrrolo[1,2-a][1,5]diazocin-5-yl)carbamoyl)-1H-indol-5-yl)difluoromethyl)phosphonic acid] | ≤ 300 nM | 100 to 1000 nM
O=C(N[C@H]1CN(S(=O)(=O)CCc2ccccc2)CC[C@H]2CC[C@@H](C(=O)Nc3ccc(-c4ccccc4)cc3)N2C1=O)c1cc2cc(C(F)(F)P(=O)(O)O)ccc2s1 [Compound 268, ((2-(((5S,8S,10aR)-8-([1,1′-biphenyl]-4-ylcarbamoyl)-6-oxo-3-(phenethylsulfonyl)decahydropyrrolo[1,2-a][1,5]diazocin-5-yl)carbamoyl)benzo[b]thiophen-5-yl)difluoromethyl)phosphonic acid] | 300 to 3000 nM | 1000 to 10000 nM
CC(C)(CC(=O)N1CC[C@H]2CC[C@@H](C(=O)N3CC(c4cccnc4)C3)N2C(=O)[C@@H](NC(=O)c2cc3cc(C(F)(F)P(=O)(O)O)ccc3s2)C1)C1CCCCC1 [Compound 269, ((2-(((5S,8S,10aR)-3-(3-cyclohexyl-3-methylbutanoyl)-6-oxo-8-(3-(pyridin-3-yl)azetidine-1-carbonyl)decahydropyrrolo[1,2-a][1,5]diazocin-5-yl)carbamoyl)benzo[b]thiophen-5-yl)difluoromethyl)phosphonic acid] | 300 to 3000 nM | ≤ 100 nM
Cc1ccc2[nH]nc(C(=O)N3CC[C@H]4CC[C@@H](C(=O)N(C)C5CC5)N4C(=O)[C@@H](NC(=O)c4ccc5ccc(C(F)(F)P(=O)(O)O)cc5c4)C3)c2c1 [Compound 270, ((7-(((5S,8S,10aR)-8-(cyclopropyl(methyl)carbamoyl)-3-(5-methyl-1H-indazole-3-carbonyl)-6-oxodecahydropyrrolo[1,2-a][1,5]diazocin-5-yl)carbamoyl)naphthalen-2-yl)difluoromethyl)phosphonic acid] | ≤ 300 nM | 1000 to 10000 nM
Cc1ccc2[nH]nc(C(=O)N3CC[C@H]4CC[C@@H](C(=O)N(C)C)N4C(=O)[C@@H](NC(=O)c4ccc5ccc(C(F)(F)P(=O)(O)O)cc5c4)C3)c2c1 [Compound 271, ((7-(((5S,8S,10aR)-8-(dimethylcarbamoyl)-3-(5-methyl-1H-indazole-3-carbonyl)-6-oxodecahydropyrrolo[1,2-a][1,5]diazocin-5-yl)carbamoyl)naphthalen-2-yl)difluoromethyl)phosphonic acid] | ≤ 300 nM | 1000 to 10000 nM
CNC(=O)[C@@H]1CC[C@@H]2CCN(Cc3ccn4ccnc4c3)C[C@H](NC(=O)c3cc4cc(C(F)(F)P(=O)(O)O)ccc4s3)C(=O)N21 [Compound 272, (difluoro(2-(((5S,8S,10aR)-3-(imidazo[1,2-a]pyridin-7-ylmethyl)-8-(methylcarbamoyl)-6-oxodecahydropyrrolo[1,2-a][1,5]diazocin-5-yl)carbamoyl)benzo[b]thiophen-5-yl)methyl)phosphonic acid] | 3000 to 30000 nM | ≤ 100 nM
O=C(N[C@H]1CN(Cc2ccn3ccnc3c2)CC[C@H]2CC[C@@H](C(=O)N3CC(c4cccnc4)C3)N2C1=O)c1cc2cc(C(F)(F)P(=O)(O)O)ccc2s1 [Compound 273, (difluoro(2-(((5S,8S,10aR)-3-(imidazo[1,2-a]pyridin-7-ylmethyl)-6-oxo-8-(3-(pyridin-3-yl)azetidine-1-carbonyl)decahydropyrrolo[1,2-a][1,5]diazocin-5-yl)carbamoyl)benzo[b]thiophen-5-yl)methyl)phosphonic acid] | 3000 to 30000 nM | ≤ 100 nM
CN1CCN(c2ccccc2CN2CC[C@H]3CC[C@@H](C(=O)N4CC(c5cccnc5)C4)N3C(=O)[C@@H](NC(=O)c3cc4cc(C(F)(F)P(=O)(O)O)ccc4s3)C2)CC1 [Compound 274, (difluoro(2-(((5S,8S,10aR)-3-(2-(4-methylpiperazin-1-yl)benzyl)-6-oxo-8-(3-(pyridin-3-yl)azetidine-1-carbonyl)decahydropyrrolo[1,2-a][1,5]diazocin-5-yl)carbamoyl)benzo[b]thiophen-5-yl)methyl)phosphonic acid] | 3000 to 30000 nM | ≤ 100 nM
COc1cc(CN2CC[C@H]3CC[C@@H](C(=O)N4CC(c5cccnc5)C4)N3C(=O)[C@@H](NC(=O)c3cc4cc(C(F)(F)P(=O)(O)O)ccc4s3)C2)ccc1-n1cnc(C)c1 [Compound 275, (difluoro(2-(((5S,8S,10aR)-3-(3-methoxy-4-(4-methyl-1H-imidazol-1-yl)benzyl)-6-oxo-8-(3-(pyridin-3-yl)azetidine-1-carbonyl)decahydropyrrolo[1,2-a][1,5]diazocin-5-yl)carbamoyl)benzo[b]thiophen-5-yl)methyl)phosphonic acid] | 3000 to 30000 nM | ≤ 100 nM
